Columns and labels:
Conditions in all cases: Compound concentration 1.0 uM
[1] = target: Glycogen synthase kinase-3 alpha (Homo sapiens) (UniProt P49840)
[2] = target: RAF proto-oncogene serine/threonine-protein kinase (Homo sapiens) (UniProt P04049)
[3] = target: MAPK/MAK/MRK overlapping kinase (Homo sapiens) (UniProt Q9UQ07)
[4] = target: T1, Mitogen-activated protein kinase 13 (Homo sapiens) (UniProt O15264)
T1 sequence (whole entry): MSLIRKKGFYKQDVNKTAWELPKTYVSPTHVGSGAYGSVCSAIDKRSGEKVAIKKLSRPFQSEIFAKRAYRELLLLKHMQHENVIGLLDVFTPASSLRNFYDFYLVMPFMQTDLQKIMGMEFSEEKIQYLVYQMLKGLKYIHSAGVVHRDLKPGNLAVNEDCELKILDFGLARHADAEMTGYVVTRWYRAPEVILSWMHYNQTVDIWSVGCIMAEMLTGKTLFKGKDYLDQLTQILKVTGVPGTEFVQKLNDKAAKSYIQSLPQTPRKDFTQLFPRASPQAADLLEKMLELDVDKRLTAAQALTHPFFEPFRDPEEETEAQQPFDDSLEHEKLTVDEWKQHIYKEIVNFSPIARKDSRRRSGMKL

[5] = target: Casein kinase I isoform gamma-3 (Homo sapiens) (UniProt Q9Y6M4)
Casein kinase I isoform gamma-3 (Homo sapiens), sequence (Q9Y6M4 whole entry, looked up, canonical isoform): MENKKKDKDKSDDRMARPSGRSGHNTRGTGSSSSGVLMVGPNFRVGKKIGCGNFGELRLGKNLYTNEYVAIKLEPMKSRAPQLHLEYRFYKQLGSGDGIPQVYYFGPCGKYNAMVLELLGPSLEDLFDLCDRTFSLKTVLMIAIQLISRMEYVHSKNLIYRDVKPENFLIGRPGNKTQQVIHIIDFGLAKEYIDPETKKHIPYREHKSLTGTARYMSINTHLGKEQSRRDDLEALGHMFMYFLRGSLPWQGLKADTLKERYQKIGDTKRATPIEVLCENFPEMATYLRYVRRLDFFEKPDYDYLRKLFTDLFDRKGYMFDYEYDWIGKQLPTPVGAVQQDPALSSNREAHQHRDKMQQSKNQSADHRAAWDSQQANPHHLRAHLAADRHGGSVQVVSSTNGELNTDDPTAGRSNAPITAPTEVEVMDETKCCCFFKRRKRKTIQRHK

[6] = target: Calcium/calmodulin-dependent protein kinase kinase 1 (Homo sapiens) (UniProt Q8N5S9)
[7] = target: T2, Protein kinase C epsilon type (Homo sapiens) (UniProt Q02156)
T2 sequence (whole entry): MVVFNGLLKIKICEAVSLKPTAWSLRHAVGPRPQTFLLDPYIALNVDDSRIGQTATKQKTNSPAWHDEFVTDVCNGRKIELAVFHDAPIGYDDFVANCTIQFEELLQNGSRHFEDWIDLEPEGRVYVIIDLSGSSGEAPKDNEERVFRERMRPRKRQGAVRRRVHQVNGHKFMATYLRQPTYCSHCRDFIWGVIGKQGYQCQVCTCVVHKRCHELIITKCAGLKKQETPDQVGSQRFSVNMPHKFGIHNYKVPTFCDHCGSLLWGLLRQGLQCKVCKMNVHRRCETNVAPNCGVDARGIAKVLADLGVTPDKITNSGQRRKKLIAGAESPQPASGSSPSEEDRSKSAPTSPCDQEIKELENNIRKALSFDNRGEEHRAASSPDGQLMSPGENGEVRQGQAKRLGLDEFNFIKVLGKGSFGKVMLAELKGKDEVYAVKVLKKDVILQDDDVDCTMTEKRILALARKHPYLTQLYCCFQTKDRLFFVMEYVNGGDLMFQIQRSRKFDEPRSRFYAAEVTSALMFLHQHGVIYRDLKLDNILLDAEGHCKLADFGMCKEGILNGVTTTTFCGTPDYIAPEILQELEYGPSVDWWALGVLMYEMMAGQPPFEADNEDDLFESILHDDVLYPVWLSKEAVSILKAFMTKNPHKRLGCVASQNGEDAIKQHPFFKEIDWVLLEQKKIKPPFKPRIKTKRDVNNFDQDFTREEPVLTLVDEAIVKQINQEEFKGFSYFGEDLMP

[8] = target: Tyrosine-protein kinase Fer (Homo sapiens) (UniProt P16591)
[9] = target: T3, Serine/threonine-protein kinase TAO1 (Homo sapiens) (UniProt Q7L7X3)
T3 sequence (whole entry): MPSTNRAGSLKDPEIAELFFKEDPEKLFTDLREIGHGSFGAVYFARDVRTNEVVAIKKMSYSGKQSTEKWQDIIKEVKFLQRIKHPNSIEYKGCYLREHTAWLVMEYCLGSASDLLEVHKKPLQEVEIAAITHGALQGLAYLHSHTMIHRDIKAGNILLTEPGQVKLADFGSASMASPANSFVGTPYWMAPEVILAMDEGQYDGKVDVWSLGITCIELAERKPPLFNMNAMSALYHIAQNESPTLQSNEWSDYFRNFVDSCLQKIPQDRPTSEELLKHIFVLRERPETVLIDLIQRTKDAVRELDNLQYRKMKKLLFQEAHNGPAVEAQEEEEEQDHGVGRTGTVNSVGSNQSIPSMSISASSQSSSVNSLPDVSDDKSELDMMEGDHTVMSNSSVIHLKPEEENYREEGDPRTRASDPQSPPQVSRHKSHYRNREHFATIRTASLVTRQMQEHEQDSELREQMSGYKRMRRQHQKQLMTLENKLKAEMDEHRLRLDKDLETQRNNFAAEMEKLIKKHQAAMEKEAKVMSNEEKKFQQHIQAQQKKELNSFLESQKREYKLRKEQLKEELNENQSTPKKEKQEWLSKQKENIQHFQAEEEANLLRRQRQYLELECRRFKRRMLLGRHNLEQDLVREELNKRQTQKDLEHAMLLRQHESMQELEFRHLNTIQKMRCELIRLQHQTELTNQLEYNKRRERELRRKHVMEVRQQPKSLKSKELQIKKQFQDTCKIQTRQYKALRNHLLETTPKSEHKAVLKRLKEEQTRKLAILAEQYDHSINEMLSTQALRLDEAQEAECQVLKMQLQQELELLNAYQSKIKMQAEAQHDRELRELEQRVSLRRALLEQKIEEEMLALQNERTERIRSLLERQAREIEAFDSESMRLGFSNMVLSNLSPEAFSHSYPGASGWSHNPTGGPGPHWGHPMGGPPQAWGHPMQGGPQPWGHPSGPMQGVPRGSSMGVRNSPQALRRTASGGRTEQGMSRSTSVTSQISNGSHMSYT

[10] = target: Serine/threonine-protein kinase SIK2 (Homo sapiens) (UniProt Q9H0K1)
Serine/threonine-protein kinase SIK2 (Homo sapiens), sequence (Q9H0K1 whole entry, looked up): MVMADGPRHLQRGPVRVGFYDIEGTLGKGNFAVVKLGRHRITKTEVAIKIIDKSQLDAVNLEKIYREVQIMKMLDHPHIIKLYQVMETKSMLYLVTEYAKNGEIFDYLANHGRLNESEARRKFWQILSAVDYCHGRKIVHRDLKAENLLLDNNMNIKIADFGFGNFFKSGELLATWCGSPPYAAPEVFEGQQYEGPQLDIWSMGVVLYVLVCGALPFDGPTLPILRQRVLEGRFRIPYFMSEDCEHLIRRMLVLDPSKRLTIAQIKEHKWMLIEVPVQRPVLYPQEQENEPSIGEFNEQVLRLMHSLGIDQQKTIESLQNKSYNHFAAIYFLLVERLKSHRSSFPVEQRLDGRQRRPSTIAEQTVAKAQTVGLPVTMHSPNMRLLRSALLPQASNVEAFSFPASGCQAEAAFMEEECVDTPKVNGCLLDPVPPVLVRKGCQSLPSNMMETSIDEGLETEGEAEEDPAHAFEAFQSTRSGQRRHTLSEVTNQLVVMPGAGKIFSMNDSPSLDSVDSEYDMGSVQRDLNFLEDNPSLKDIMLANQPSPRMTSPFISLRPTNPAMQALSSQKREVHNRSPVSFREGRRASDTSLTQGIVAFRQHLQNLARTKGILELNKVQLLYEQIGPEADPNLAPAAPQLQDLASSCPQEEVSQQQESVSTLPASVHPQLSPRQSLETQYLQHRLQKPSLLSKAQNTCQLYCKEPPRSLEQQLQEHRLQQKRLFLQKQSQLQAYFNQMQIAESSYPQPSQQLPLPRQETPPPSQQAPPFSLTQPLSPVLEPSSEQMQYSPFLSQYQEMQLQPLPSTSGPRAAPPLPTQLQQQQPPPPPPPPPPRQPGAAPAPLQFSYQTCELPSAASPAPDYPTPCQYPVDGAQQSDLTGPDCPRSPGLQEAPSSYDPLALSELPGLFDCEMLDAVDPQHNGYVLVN

[11] = target: NT-3 growth factor receptor (Homo sapiens) (UniProt Q16288)
NT-3 growth factor receptor (Homo sapiens), sequence (Q16288 32-839 limits assumed): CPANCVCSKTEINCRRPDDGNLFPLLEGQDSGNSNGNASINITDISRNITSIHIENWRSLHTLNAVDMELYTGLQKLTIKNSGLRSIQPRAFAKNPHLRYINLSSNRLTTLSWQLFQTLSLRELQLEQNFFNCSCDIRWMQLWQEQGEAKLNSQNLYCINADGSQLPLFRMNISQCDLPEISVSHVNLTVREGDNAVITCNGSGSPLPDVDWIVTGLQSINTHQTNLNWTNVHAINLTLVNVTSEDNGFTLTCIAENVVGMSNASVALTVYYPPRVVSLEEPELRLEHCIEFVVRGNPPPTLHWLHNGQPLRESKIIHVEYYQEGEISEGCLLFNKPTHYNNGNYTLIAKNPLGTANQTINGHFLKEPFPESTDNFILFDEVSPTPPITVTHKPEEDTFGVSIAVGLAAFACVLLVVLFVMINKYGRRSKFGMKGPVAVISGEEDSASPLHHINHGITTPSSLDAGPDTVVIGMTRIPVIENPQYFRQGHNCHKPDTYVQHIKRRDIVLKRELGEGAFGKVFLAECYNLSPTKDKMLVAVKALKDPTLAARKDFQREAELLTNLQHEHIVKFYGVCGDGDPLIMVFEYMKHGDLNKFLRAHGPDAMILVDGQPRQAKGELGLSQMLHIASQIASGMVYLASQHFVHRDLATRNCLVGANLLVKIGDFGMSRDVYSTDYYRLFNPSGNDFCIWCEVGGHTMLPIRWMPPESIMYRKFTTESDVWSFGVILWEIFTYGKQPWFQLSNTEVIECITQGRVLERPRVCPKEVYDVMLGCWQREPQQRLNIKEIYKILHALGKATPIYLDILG

[12] = target: G protein-coupled receptor kinase 6 (Homo sapiens) (UniProt P43250)
G protein-coupled receptor kinase 6 (Homo sapiens), sequence (P43250 whole entry, looked up): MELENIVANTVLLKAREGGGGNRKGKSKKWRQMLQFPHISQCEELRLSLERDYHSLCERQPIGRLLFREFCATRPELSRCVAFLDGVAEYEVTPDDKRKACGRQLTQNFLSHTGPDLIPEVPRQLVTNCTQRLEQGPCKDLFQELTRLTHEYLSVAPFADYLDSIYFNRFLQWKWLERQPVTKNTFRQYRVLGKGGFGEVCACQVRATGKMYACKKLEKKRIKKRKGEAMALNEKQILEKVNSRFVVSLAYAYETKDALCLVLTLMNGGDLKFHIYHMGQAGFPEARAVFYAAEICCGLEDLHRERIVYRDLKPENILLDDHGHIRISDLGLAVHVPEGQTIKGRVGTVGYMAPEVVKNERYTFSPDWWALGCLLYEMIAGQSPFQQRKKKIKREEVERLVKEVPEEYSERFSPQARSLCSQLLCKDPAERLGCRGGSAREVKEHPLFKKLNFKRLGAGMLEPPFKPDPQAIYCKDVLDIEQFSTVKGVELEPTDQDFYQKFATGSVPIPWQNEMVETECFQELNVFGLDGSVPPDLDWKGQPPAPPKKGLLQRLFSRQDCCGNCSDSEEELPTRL

[13] = target: Mitogen-activated protein kinase kinase kinase kinase 5 (Homo sapiens) (UniProt Q9Y4K4)
Mitogen-activated protein kinase kinase kinase kinase 5 (Homo sapiens), sequence (Q9Y4K4 whole entry, looked up): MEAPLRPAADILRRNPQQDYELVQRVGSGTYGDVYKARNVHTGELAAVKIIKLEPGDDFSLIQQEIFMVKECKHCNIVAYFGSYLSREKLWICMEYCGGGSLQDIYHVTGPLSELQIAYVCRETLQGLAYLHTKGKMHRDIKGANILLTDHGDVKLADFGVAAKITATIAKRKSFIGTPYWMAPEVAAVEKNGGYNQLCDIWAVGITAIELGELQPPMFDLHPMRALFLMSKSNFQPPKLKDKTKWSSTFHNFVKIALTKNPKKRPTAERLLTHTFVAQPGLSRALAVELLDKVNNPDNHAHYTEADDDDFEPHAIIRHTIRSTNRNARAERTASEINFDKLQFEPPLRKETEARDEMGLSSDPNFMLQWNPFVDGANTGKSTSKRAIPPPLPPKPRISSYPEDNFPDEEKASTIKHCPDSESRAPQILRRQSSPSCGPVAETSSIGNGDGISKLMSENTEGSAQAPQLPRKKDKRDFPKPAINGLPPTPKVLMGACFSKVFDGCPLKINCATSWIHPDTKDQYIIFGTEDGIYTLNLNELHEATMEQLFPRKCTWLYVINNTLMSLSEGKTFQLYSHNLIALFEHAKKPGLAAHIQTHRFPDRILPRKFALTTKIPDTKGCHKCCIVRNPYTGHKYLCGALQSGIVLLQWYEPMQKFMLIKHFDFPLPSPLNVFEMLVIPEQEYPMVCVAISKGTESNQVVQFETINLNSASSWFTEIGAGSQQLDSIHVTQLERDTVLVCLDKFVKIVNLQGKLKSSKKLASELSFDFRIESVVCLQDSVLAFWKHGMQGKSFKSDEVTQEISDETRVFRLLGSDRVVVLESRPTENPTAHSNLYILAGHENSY

[14] = target: Dual specificity protein kinase CLK2 (Homo sapiens) (UniProt P49760)
Dual specificity protein kinase CLK2 (Homo sapiens), sequence (P49760 whole entry, looked up): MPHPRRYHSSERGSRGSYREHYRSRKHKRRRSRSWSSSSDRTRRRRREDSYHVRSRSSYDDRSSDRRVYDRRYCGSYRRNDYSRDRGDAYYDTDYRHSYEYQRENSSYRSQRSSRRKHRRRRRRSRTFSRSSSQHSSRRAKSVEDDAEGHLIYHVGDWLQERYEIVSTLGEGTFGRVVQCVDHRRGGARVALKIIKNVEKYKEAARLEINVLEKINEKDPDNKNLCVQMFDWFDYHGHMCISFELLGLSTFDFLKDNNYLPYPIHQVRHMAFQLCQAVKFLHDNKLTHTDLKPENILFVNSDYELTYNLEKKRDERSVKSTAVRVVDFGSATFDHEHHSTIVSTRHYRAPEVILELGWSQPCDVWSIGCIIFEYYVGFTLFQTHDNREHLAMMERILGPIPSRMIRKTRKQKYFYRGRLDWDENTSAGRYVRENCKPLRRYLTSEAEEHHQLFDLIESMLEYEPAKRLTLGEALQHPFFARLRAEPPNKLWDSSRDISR

[15] = target: Leukocyte tyrosine kinase receptor (Homo sapiens) (UniProt P29376)
[16] = target: Serine/threonine-protein kinase mTOR (Homo sapiens) (UniProt P42345)
[17] = target: Mitogen-activated protein kinase 11 (Homo sapiens) (UniProt Q15759)
Mitogen-activated protein kinase 11 (Homo sapiens), sequence (Q15759 whole entry): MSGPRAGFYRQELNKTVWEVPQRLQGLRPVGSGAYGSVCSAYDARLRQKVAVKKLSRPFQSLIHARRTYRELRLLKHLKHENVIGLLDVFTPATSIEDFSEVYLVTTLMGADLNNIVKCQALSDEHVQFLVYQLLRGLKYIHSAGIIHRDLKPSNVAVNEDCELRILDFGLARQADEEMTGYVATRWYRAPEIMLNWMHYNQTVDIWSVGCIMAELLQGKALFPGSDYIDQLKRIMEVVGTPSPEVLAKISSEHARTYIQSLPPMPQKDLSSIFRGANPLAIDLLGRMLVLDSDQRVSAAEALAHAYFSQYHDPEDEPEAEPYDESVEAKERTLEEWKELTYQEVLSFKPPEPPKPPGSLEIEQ

Measured: % residual kinase activity

Glycogen synthase kinase-3 alpha (Homo sapiens), sequence (P49840 2-483 limits assumed): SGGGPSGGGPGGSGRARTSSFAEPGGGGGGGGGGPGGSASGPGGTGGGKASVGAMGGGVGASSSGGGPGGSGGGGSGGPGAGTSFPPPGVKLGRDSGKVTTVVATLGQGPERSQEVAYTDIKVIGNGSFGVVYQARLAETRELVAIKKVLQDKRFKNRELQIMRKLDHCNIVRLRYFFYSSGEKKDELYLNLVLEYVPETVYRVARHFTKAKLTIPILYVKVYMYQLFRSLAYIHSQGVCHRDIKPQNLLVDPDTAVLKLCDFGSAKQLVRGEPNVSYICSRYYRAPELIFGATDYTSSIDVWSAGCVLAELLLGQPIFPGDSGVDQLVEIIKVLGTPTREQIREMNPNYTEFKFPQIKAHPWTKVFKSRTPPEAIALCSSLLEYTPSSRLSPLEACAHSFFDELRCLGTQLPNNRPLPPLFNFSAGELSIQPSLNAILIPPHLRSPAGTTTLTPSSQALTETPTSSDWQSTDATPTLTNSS

CN1CCN(c2cnc3c(C4CCN(C(=O)c5ccc(OC(F)(F)F)cc5N)CC4)ncnc3c2)CC1 [BAY-885]
inactive: [1] 112% | [2] 107% | [3] 94% | [4] 112% | [5] 96% | [6] 102% | [7] 104% | [8] 38% | [9] 100% | [10] 101% | [11] 123% | [12] 111% | [13] 99% | [14] 109% | [15] 103% | [16] 104% | [17] 103%
